# Measurements reported in ChEMBL document CHEMBL1201862, “PubChem BioAssay data set” (2004).
#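 Interpolation was linear, between the two tested concentrations surrounding the appropriate level; five concentrations were tested over 48 hours in 96-well plates. The concentration for 50% growth inhibition is given as GI50.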 Active and inactive are the calls of the source. Cut-off read from the data, not from the text of the source: active = GI50 up to about 1.1 µM and inactive = higher.
# Tests used:
# Assay in all cases: inhibition of tumour cell growth, NCI panel, 48 h
# NCI-H522 = system: NCI-H522
# OVCAR-4 = system: OVCAR-4
# CAKI-1 = system: CAKI-1
# NCI-H460 = system: NCI-H460
# MDA-MB-435 = system: MDA-MB-435
# Hs-578T = system: Hs-578T
# PC-3 = system: PC-3
# DU-145 = system: DU-145
# U-251 = system: U-251
# IGROV-1 = system: IGROV-1
# OVCAR-3 = system: OVCAR-3
# KM12 = system: KM12
# SN12C = system: SN12C
# BT-549 = system: BT-549
# ACHN = system: ACHN
# SF-295 = system: SF-295
# SK-MEL-5 = system: SK-MEL-5
# M14 = system: M14
# MCF7 = system: MCF7
Compound,GI50 (NCI-H522),GI50 (OVCAR-4),GI50 (CAKI-1),GI50 (NCI-H460),GI50 (MDA-MB-435),GI50 (Hs-578T),GI50 (PC-3),GI50 (DU-145),GI50 (U-251),GI50 (IGROV-1),GI50 (OVCAR-3),GI50 (KM12),GI50 (SN12C),GI50 (BT-549),GI50 (ACHN),GI50 (SF-295),GI50 (SK-MEL-5),GI50 (M14),GI50 (MCF7)
O=C1c2ccccc2-c2c1c1ccccc1c(=O)n2CCO,24 µM (inactive),33.2 µM (inactive),3.53 µM (inactive),1.82 µM (inactive),> 72.9 µM (inactive),29.8 µM (inactive),21.5 µM (inactive),13.5 µM (inactive),8.61 µM (inactive),20.5 µM (inactive),74 µM (inactive),6.38 µM (inactive),10.8 µM (inactive),18.5 µM (inactive),2.17 µM (inactive),11.8 µM (inactive),8.81 µM (inactive),> 100 µM (inactive),4.41 µM (inactive)
COc1ccc2c(c1)CCc1c(-c3noc4c3CCc3cc(OC)ccc3-4)noc1-2,> 100 µM (inactive),> 100 µM (inactive),> 100 µM (inactive),> 100 µM (inactive),> 100 µM (inactive),> 100 µM (inactive),> 100 µM (inactive),> 100 µM (inactive),> 100 µM (inactive),> 100 µM (inactive),> 100 µM (inactive),> 100 µM (inactive),> 100 µM (inactive),> 100 µM (inactive),> 100 µM (inactive),> 100 µM (inactive),> 100 µM (inactive),> 100 µM (inactive),> 100 µM (inactive)
Cc1ccc(S(=O)(=O)O)cc1.c1cc2c(c(NC3=NCCN3)c1)CCCC2,> 100 µM (inactive),> 100 µM (inactive),> 100 µM (inactive),> 100 µM (inactive),> 100 µM (inactive),> 100 µM (inactive),> 100 µM (inactive),> 100 µM (inactive),> 100 µM (inactive),> 100 µM (inactive),> 100 µM (inactive),> 100 µM (inactive),> 100 µM (inactive),> 100 µM (inactive),> 100 µM (inactive),> 100 µM (inactive),> 100 µM (inactive),> 100 µM (inactive),> 100 µM (inactive)
Oc1ccc(/N=C/c2ccc(/C=N/c3ccc(O)cc3)cc2)cc1,17.7 µM (inactive),14.5 µM (inactive),20 µM (inactive),24.4 µM (inactive),16.3 µM (inactive),23.6 µM (inactive),16.3 µM (inactive),18 µM (inactive),14.5 µM (inactive),20 µM (inactive),16.3 µM (inactive),15.3 µM (inactive),14.9 µM (inactive),17.4 µM (inactive),13.1 µM (inactive),16.8 µM (inactive),15 µM (inactive),17.1 µM (inactive),22.9 µM (inactive)
CN1C/C(=C\c2cccs2)C2=NC(=S)NC(c3cccs3)C2C1 (stereo not given),36.4 µM (inactive),29.5 µM (inactive),> 100 µM (inactive),50.6 µM (inactive),43.9 µM (inactive),> 100 µM (inactive),> 100 µM (inactive),> 100 µM (inactive),> 100 µM (inactive),46.3 µM (inactive),76.4 µM (inactive),57 µM (inactive),> 100 µM (inactive),46.1 µM (inactive),64.9 µM (inactive),42.8 µM (inactive),33.6 µM (inactive),55.2 µM (inactive),35.6 µM (inactive)
COc1cc(Cn2c3c(c4cc(O)ccc42)C(=O)c2ccccc2C3=O)cc(OC)c1,2.43 µM (inactive),4.86 µM (inactive),15.2 µM (inactive),5.61 µM (inactive),0.743 µM (active),11 µM (inactive),2.46 µM (inactive),10.8 µM (inactive),3.6 µM (inactive),2.11 µM (inactive),20.6 µM (inactive),2.43 µM (inactive),5.09 µM (inactive),1.82 µM (inactive),1.61 µM (inactive),6.85 µM (inactive),4.29 µM (inactive),16.3 µM (inactive),12.2 µM (inactive)
CCc1nc(N)nc(N)c1-c1ccc([N+](C)(C)C)cc1,> 100 µM (inactive),> 100 µM (inactive),> 100 µM (inactive),> 90.2 µM (inactive),> 100 µM (inactive),> 100 µM (inactive),> 100 µM (inactive),> 100 µM (inactive),> 100 µM (inactive),> 100 µM (inactive),> 100 µM (inactive),> 100 µM (inactive),> 100 µM (inactive),> 100 µM (inactive),> 100 µM (inactive),> 100 µM (inactive),> 100 µM (inactive),> 100 µM (inactive),> 100 µM (inactive)
CN(C)CCC(C(=O)C(C)(C)C)c1ccccn1 (stereo not given),> 100 µM (inactive),> 100 µM (inactive),> 100 µM (inactive),> 100 µM (inactive),> 100 µM (inactive),> 100 µM (inactive),> 100 µM (inactive),> 100 µM (inactive),> 100 µM (inactive),> 100 µM (inactive),< 0.01 µM (active),> 100 µM (inactive),> 100 µM (inactive),> 100 µM (inactive),> 100 µM (inactive),> 100 µM (inactive),> 100 µM (inactive),> 100 µM (inactive),> 100 µM (inactive)
COC(=O)c1c(-c2ccc(Cl)cc2)cc2c3ccccc3n(C)c2c1C(=O)OC,67.5 µM (inactive),> 100 µM (inactive),> 100 µM (inactive),49.8 µM (inactive),> 100 µM (inactive),> 100 µM (inactive),> 100 µM (inactive),> 100 µM (inactive),> 100 µM (inactive),> 100 µM (inactive),> 100 µM (inactive),> 100 µM (inactive),> 100 µM (inactive),> 100 µM (inactive),> 100 µM (inactive),> 100 µM (inactive),> 100 µM (inactive),> 100 µM (inactive),38.3 µM (inactive)
COc1cc2ccc(/C=C\[N+](=O)[O-])cc2cc1OC,1.13 µM (inactive),3.04 µM (inactive),5.06 µM (inactive),15.7 µM (inactive),2.86 µM (inactive),7.69 µM (inactive),2.58 µM (inactive),2.16 µM (inactive),2.65 µM (inactive),1.97 µM (inactive),3.5 µM (inactive),6.85 µM (inactive),2.37 µM (inactive),2.32 µM (inactive),1.81 µM (inactive),18.2 µM (inactive),4.76 µM (inactive),2.65 µM (inactive),2.24 µM (inactive)
C=CCN1C[C@H](C)N([C@H](c2ccc(C(=O)NC(CC)CC)cc2)c2cccc(OC)c2)C[C@H]1C,13.4 µM (inactive),46 µM (inactive),22.6 µM (inactive),31 µM (inactive),35.6 µM (inactive),> 100 µM (inactive),31.1 µM (inactive),81.8 µM (inactive),34 µM (inactive),65.3 µM (inactive),52.4 µM (inactive),37.7 µM (inactive),36.8 µM (inactive),29.1 µM (inactive),33.9 µM (inactive),39.8 µM (inactive),17.9 µM (inactive),17.7 µM (inactive),35.2 µM (inactive)
COc1ccccc1NC1Oc2cc3c(cc2C(c2cc(OC)c(OC)c(OC)c2)C1C)OCO3 (stereo not given),1.45 µM (inactive),6.37 µM (inactive),2.22 µM (inactive),4.09 µM (inactive),0.242 µM (active),6.44 µM (inactive),1.12 µM (active),4.75 µM (inactive),2.92 µM (inactive),3.24 µM (inactive),1.52 µM (inactive),1.43 µM (inactive),5.57 µM (inactive),2.84 µM (inactive),9.91 µM (inactive),0.689 µM (active),0.769 µM (active),3.26 µM (inactive),2.65 µM (inactive)
[N-]=[N+]=Nc1ccc(CNc2cc(=O)[nH]c(=O)[nH]2)cc1,> 100 µM (inactive),> 100 µM (inactive),> 100 µM (inactive),> 100 µM (inactive),> 49.2 µM (inactive),> 100 µM (inactive),> 100 µM (inactive),> 100 µM (inactive),> 100 µM (inactive),> 95.7 µM (inactive),> 100 µM (inactive),> 100 µM (inactive),> 100 µM (inactive),> 100 µM (inactive),> 100 µM (inactive),> 100 µM (inactive),> 100 µM (inactive),> 100 µM (inactive),> 100 µM (inactive)
Cc1[nH]n(-c2ncc(C(=O)O)c(=O)[nH]2)c(=O)c1CCO,> 100 µM (inactive),> 100 µM (inactive),> 100 µM (inactive),> 75.7 µM (inactive),> 100 µM (inactive),> 100 µM (inactive),> 100 µM (inactive),> 100 µM (inactive),> 100 µM (inactive),> 100 µM (inactive),> 100 µM (inactive),> 100 µM (inactive),> 100 µM (inactive),> 100 µM (inactive),> 100 µM (inactive),> 100 µM (inactive),> 100 µM (inactive),> 100 µM (inactive),> 92.7 µM (inactive)
O=C1/C(=N/CCc2cc(Br)c(O)c(Br)c2)C=C(O)c2cccnc21,1.74 µM (inactive),2.72 µM (inactive),5.04 µM (inactive),1.17 µM (inactive),0.344 µM (active),1.49 µM (inactive),3.92 µM (inactive),1.45 µM (inactive),1.93 µM (inactive),2.07 µM (inactive),1.59 µM (inactive),2.94 µM (inactive),1.35 µM (inactive),1.37 µM (inactive),2.68 µM (inactive),1.2 µM (inactive),1.24 µM (inactive),1.31 µM (inactive),1.61 µM (inactive)
